We go through 1 molecule from US20100004171A1, “Therapeutic Methods for Neuropathic Pain” (priority 2006, published 2010).

Data set [1] deals with tactile allodynia in allodynic rats. Description: Tactile allodynia test (von Frey filaments, paw withdrawal threshold) in CCI (Bennett model) rats. In kind it is in vivo, rat. The source says:
Bennett Model: In this model, approximately 0.8 cm of the left sciatic nerve was exposed and freed with sharpened scissors at middle-thigh level as described by Bennett and Xie.^[76] Four ligatures were placed loosely around the sciatic nerve with 4-0 chromic catgut, with 1 mm space between the ties, which compresses the nerve but epineural blood circulation is preserved. The tissue and skin were closed in layers. […] Most allodynia was seen during the time period of 7-14 days after the surgery.
Intrathecal catheter installation: A PE10 catheter, stretched to a somewhat thinner diameter in the distal part, was introduced into the spinal canal (subarachnoid space) via a 21 G (gauge) cannula between the L5 and L6 lamina and advanced to the lumbar enlargement in rats. The proximal part was tunneled under the skin and led out on the upper dorsal region. The location of the catheter was verified by the injection of 6 μl (50 mg/ml) xylocalne, such that a transient, flaccid paralysis of the legs was produced, and by X-ray after administration of 10 μl iodine contrast medium (Astra, Sweden). The catheter could be kept for up to two weeks in animals.^[79]
The maximum volume injected at any one time was 10 μl.^[79]
Tactile allodynia test: In a transparent glass chamber (20×20 cm) with a mesh net floor, each animal was subjected to the tactile allodynia test. A positive response is when an innocuous tactile stimulus induces a brief paw withdrawal away from the stimulation, similar to a paw withdrawal due to heat. A set of von Frey filaments from 0.01 to 28 g (Stoelting Co., Wood Dale, Ill.) were applied to the mid-paw of the allodynic rats at 1 gram, and then progressing up or down. The filament was pressed against the plantar surface for 1 to 2 seconds until it bent. Subsequent applications were made with a higher or lower von Frey filament depending on the animal response. The testing always began with normal paws. If a filament induced a brief paw withdrawal of a paw without bending in three out of five tests, the size of the filament was recorded as eliciting a positive withdrawal threshold.^[80] Allodynia was considered to be present when a withdrawal threshold was evoked by a filament corresponding to 8 grams or less.
In rats with tactile allodynia (a withdrawal threshold with a filament below 8 g), an intrathecal catheter (PE 10) was installed and linked to an osmotic pump (Alzet) in a 37° C. water bath. Following a bolus injection of SCP-1 (30 nmol/kg, 10 μl), agrin siRNA (100 nM) was intrathecally administered continuously by the pump at a rate of 5 μl/1 hour for 4 hr. The animals were subjected to von Frey filament test every 15 min for 4 hr to determine whether the effects of SCP-1 on allodynia suppression are blocked by agrin siRNA. A control siRNA (nFsiRNA) was applied in the same way. The behavioral data was analyzed for agrin effects. Immediately after behavioral experiments, the animals were sacrificed and subjected to protein extraction of lumbar spinal cord, followed by Western-blot analysis as described above.
A blind test was designed for intrathecal drug evaluations. Five days after CCI, rats were subjected to tactile allodynia tests with von Frey filaments. If a filament corresponding to 8 grams or less evoked a withdrawal response on the rat paw (at least 3 responses out of 5 stimuli), the value was designated as the allodynia threshold. […] Either a drug (100 nmol in 10 μl saline) or vehicle (only 10 μl saline) was pre-warmed and intrathecally injected into the allodynic rats. Then the rats were assayed for changes in allodynic and hyperalgesic behavior, agrin gene expression, and agrin protein changes. In addition, distribution and amount of agrin in the dorsal horn were visualized using immunostaining of L5 as reported above in Example 7.

The test system of data set [2] is thermal hyperalgesia in allodynic rats. Description: Thermal hyperalgesia test (paw withdrawal latency) in CCI (Bennett) rats. In kind it is in vivo, rat.
Data set [3] deals with tactile allodynia in allodynic rats. The data set can be described thus: Tactile allodynia test (von Frey filaments, paw withdrawal threshold) in CCI (Bennett model) rats. In kind it is in vivo, rat. The following applies: for effect on tactile allodynia: day 7 after injury.
Data set [4] relates to cultured human hepatocytes. The following applies: 100 μM; cited from earlier work.
The subject of another data set is nociceptive pain. The following applies: cited from earlier work.

SMILES strings stand for the structures.

For the molecule `O=C(CN1C(=O)c2ccccc2S1(=O)=O)Nc1ccc(O)cc1` [SCP-1], in data set [1] (Example 9: SCP-1 alone), the “time to normalized withdrawal threshold” value is given as “about one hour after injection”. Also, in data set [1] (Example 9: injected 7 days after CCI, SCP-1 alone, up to 4 h), the “effect on withdrawal threshold” value was “normalized the withdrawal threshold”. Moreover, in data set [1] (intrathecal 100 nmol in 10 μl), the “duration of effect on withdrawal threshold” value was “up to 8 hr”. For the same molecule, the “time to normal withdrawal threshold” value in data set [1] (intrathecal 100 nmol in 10 μl) is reported as “about an hour after injection”. Moreover, the “effect on paw-withdrawal threshold” value in data set [1] (intrathecal 100 nmol in 10 μl in allodynic rats, day 7 after injury, up to 8 hr) is reported as “raised the withdrawal threshold to normal values”. The “effect on tactile allodynia” value in data set [1] (intrathecal 100 nmol, day 7 after injury) is reported as “suppressed the tactile allodynia”; in data set [3] (intrathecal 1 nmol), “did not affect tactile allodynia”; in data set [3] (intrathecal 10 nmol), “did not affect tactile allodynia”; in data set [3] (intrathecal 50 nmol), “only a mild effect”; in data set [3] (intrathecal 200 nmol), “suppressed the tactile allodynia”. Also, the “increase in paw-withdrawal latency (thermal hyperalgesia)” value in data set [2] (intrathecal 100 nmol in 10 μl, CCI (Bennett) rat model) is 80%. The “effect on paw-withdrawal latency at 120 min post injection” value in data set [2] (intrathecal 100 nmol, 120 min) is reported as “still apparent”. For the same molecule, in data set [3] (Example 9: SCP-1 alone), the “duration of suppressive effect” value is recorded as “at least 4 hr”. Besides, the “withdrawal threshold at 2 hr post-injection” value in data set [3] (intrathecal 100 nmol) worked out at 27.3 ± 2.5 g. Further, in data set [3] (intrathecal 100 nmol, basal threshold 4.6±1.1 g), the “withdrawal threshold at 90 min after injection” value was found to be 28 ± 2.4 g. Moreover, in data set [3] (pre-emptive intrathecal 100 nmol in 10 μl saline immediately prior to CCI, 0, 3, 7 days), the “effect on tactile allodynia (paw withdrawal threshold)” value is “prevented”. Also, the “duration of prevention of tactile allodynia” value in data set [3] (pre-emptive intrathecal 100 nmol prior to CCI) is “up to 7 days”. The “effect on paw withdrawal threshold at 7 days” value in data set [3] (pre-emptive intrathecal 100 nmol prior to CCI, 7 days after injury) is on record as “remained strong”. Also, the apoptosis entry in data set [4] is given as “did not induce apoptosis”. Further, the “effect on nociceptive pain” value in the data set with nociceptive pain (formalin- and CFA-induced, rodent models, without any toxicity) is “suppressed formalin- and CFA-induced nociceptive pain”. Further, the “acute liver or kidney toxicity” value with nociceptive pain (while relieving nociceptive pain) is “without acute liver or kidney toxicity”.
